Results on 1 molecule are retold here after ChEMBL document CHEMBL3784959, “Cyclophosphamide pharmacokinetics and dose requirements in patients with renal insufficiency” (Kidney Int, 2002).

Series [1] is described as follows: Volume of distribution at steady state in patient (6 patients) with hemodialysis-dependent end-stage renal disease at 1.2 +/- 0.4 g/m'2 administered as pulse therapy with 1 hr infusion followed by hemodialysis for 3 hrs started 7 hrs post dose measured during hemodialysis treatment by HPLC analysis. As to conditions: human, in vivo, iv, 1.2 g/m'2.
Series [2] in a line: Drug excretion in urine of patient (6 patients) with severe renal insufficiency at 1.1 +/- 0.2 g/m'2 administered as pulse therapy with 1 hr infusion by HPLC analysis. As to conditions: human, iv, 1.1 g/m'2.
Series [3] is described as follows: clinical. Particulars: human, in vivo, iv, 1.1 g/m'2.
Description: Elimination half life in patient (6 patients) with severe renal insufficiency at 1.1 +/- 0.2 g/m'2 administered as pulse therapy with 1 hr infusion by HPLC analysis
Series [4] is described as follows: clinical. Particulars: human, in vivo, iv, 1.4 g/m'2.
Description: Systemic clearance in patient (6 patients) with moderate renal insufficiency at 1.4 +/- 0.1 g/m'2 administered as pulse therapy with 1 hr infusion by HPLC analysis
Series [5] in a line: clinical. As to conditions: human, in vivo, iv, 1.4 g/m'2. This is another data set of the same source.
Description: Elimination half life in patient (6 patients) with moderate renal insufficiency at 1.4 +/- 0.1 g/m'2 administered as pulse therapy with 1 hr infusion by HPLC analysis
Series [6] can be described thus: clinical. As to conditions: human, in vivo, iv, 0.83 g/m'2.
Description: Volume of distribution at steady state in patient ( 12 patients) with normal renal function at 0.83 +/- 0.05 g/m'2 administered as pulse therapy with 1 hr infusion by HPLC analysis
Series [7] in a line: clinical. Particulars: human, in vivo, iv, 1.2 g/m'2.
Description: Elimination half life in patient (6 patients) with hemodialysis-dependent end-stage renal disease at 1.2 +/- 0.4 g/m'2 administered as pulse therapy with 1 hr infusion followed by hemodialysis for 3 hrs started 7 hrs post dose measured during hemodialysis treatment by HPLC analysis
A short description of series [8]: clinical. As to conditions: human, in vivo, iv, 0.83 g/m'2. The source holds these as a separate data set.
Description: Renal clearance in patient ( 12 patients) with normal renal function at 0.83 +/- 0.05 g/m'2 administered as pulse therapy with 1 hr infusion by HPLC analysis
Series [9] in a line: Volume of distribution at steady state in patient (6 patients) with severe renal insufficiency at 1.1 +/- 0.2 g/m'2 administered as pulse therapy with 1 hr infusion by HPLC analysis. As to conditions: human, in vivo, iv, 1.1 g/m'2.
Series [10] can be described thus: clinical. Particulars: human, in vivo, iv, 0.83 g/m'2. The source holds these as a separate data set.
Description: Systemic clearance in patient ( 12 patients) with normal renal function at 0.83 +/- 0.05 g/m'2 administered as pulse therapy with 1 hr infusion by HPLC analysis
Series [11] is described as follows: Drug recovery in normal human urine.
Series [12] in a line: clinical. As to conditions: human, in vivo, iv, 1.2 g/m'2. The source holds these as a separate data set.
Description: Renal clearance in patient (6 patients) with hemodialysis-dependent end-stage renal disease at 1.2 +/- 0.4 g/m'2 administered as pulse therapy with 1 hr infusion followed by hemodialysis for 3 hrs started 7 hrs post dose measured during hemodialysis treatment by HPLC analysis
Series [13] can be described thus: Drug excretion in urine of patient (6 patients) with hemodialysis-dependent end-stage renal disease at 1.2 +/- 0.4 g/m'2 administered as pulse therapy with 1 hr infusion followed by hemodialysis for 3 hrs started 7 hrs post dose measured during hemodialysis treatment by HPLC analysis. Particulars: human, iv, 1.2 g/m'2.
The nature of series [14]: clinical. As to conditions: human, in vivo, iv, 0.83 g/m'2. The source holds these as a separate data set.
Description: Elimination half life in patient ( 12 patients) with normal renal function at 0.83 +/- 0.05 g/m'2 administered as pulse therapy with 1 hr infusion by HPLC analysis
Series [15] can be described thus: clinical. As to conditions: human, in vivo, iv, 1.1 g/m'2. The source holds these as a separate data set.
Description: Renal clearance in patient (6 patients) with severe renal insufficiency at 1.1 +/- 0.2 g/m'2 administered as pulse therapy with 1 hr infusion by HPLC analysis
Series [16] can be described thus: clinical. As to conditions: human, in vivo, iv, 1.1 g/m'2. This is another data set of the same source.
Description: Systemic clearance in patient (6 patients) with severe renal insufficiency at 1.1 +/- 0.2 g/m'2 administered as pulse therapy with 1 hr infusion by HPLC analysis
Series [17] is described as follows: clinical. Particulars: human, in vivo, iv, 1.2 g/m'2. The source holds these as a separate data set.
Description: Systemic clearance in patient (6 patients) with hemodialysis-dependent end-stage renal disease at 1.2 +/- 0.4 g/m'2 administered as pulse therapy with 1 hr infusion followed by hemodialysis for 3 hrs started 7 hrs post dose measured during hemodialysis treatment by HPLC analysis
The nature of series [18]: clinical. Particulars: human, in vivo, iv, 1.4 g/m'2. This is another data set of the same source.
Description: Renal clearance in patient (6 patients) with moderate renal insufficiency at 1.4 +/- 0.1 g/m'2 administered as pulse therapy with 1 hr infusion by HPLC analysis
Series [19] in a line: Drug excretion in dialysate of patient (4 patients) with chronic renal failure at 100 mg, iv administered over 10 mins followed by hemodialysis for 4 hrs measured during hemodialysis treatment by GLC analysis. As to conditions: human.
Series [20] can be described thus: Drug excretion in urine of patient ( 12 patients) with normal renal function at 0.83 +/- 0.05 g/m'2 administered as pulse therapy with 1 hr infusion by HPLC analysis. As to conditions: human, iv, 0.83 g/m'2.
A short description of series [21]: Drug excretion in urine of patient (6 patients) with moderate renal insufficiency at 1.4 +/- 0.1 g/m'2 administered as pulse therapy with 1 hr infusion by HPLC analysis. As to conditions: human, iv, 1.4 g/m'2.
Series [22] can be described thus: Volume of distribution at steady state in patient (6 patients) with moderate renal insufficiency at 1.4 +/- 0.1 g/m'2 administered as pulse therapy with 1 hr infusion by HPLC analysis. Particulars: human, in vivo, iv, 1.4 g/m'2.

As to `O=P1(N(CCCl)CCCl)NCCCO1` (configuration not stated) [CYCLOPHOSPHAMIDE ANHYDROUS], in series [1], the Vd was 0.49 L/kg. Also, the results for the dose excreted at 1 h in series [2], in [20] and in series [21] were 5.6%, 19.1% and 5.8%, respectively. The half-life at 1 h in series [3] was 7.3 h; in series [5], 6.4 h; in series [14], 4.8 h. In addition, the clearance at 1 h in series [4] was 57 mL/min; in [10], 79 mL/min; in [16], 47 mL/min. The Vd at 1 h was found to be 0.49 L/kg in [6], 0.36 L/kg in series [9] and 0.36 L/kg in series [22]. In [7], this molecule had a half-life of 7.3 h. Also, the CL renal at 1 h in [8] is 14.9 mL/min; in series [15], 2.4 mL/min; in series [18], 3.4 mL/min. In addition, the dose excreted was at most 25% in series [11] and 3% in series [13]. The same molecule had a CL renal at 7 h in series [12] of 2.1 mL/min. In addition, the clearance in series [17] turned out to be 64 mL/min. For the same molecule, in [19], the dose excreted at 4 h stood at 37%.

What is called half-life is how long it takes for the measured level to halve. Higher therefore signals slow loss. What is called clearance is a measure of how efficiently the substance is removed, as volume per time. A high value points to a high capacity for elimination.
